How the values were obtained:
[1] = Visual observation of suspension aerosol formulations (dispersion, flocculation, settling, creaming, suitability for metered dose inhaler); format: physicochemical; conditions: for homogeneity of suspension: Example 1: 1.6 percent in HFC 134a
Method: (§1) For each of the micronized drug substances A-G set forth below, formulations were prepared at drug concentrations of 0.017 percent, 0.039 percent, 0.083 percent, 0.41 percent, and 1.6 percent by weight based on the total weight of the formulation (corresponding to 0.20 mg/mL, 0.50 mg/mL, 1.0 mg/mL, 5.0 mg/Ml, and 20 mg/mL, respectively). The formulations were prepared by dispersing micronized drug in HFC 134a in a sealed 15 mL clear PET vial using ultrasonic energy.
For each propellant mix the range of drug concentrations used in Example 1 was used.
BDP formulations were prepared at 0.070 percent by weight (1.0 mg/mL) in HFC 227 and at 0.38 percent by weight (5.0 mg/mL) in a 1:1 mixture of HFC 227 and HFC 134a.
Formulations of salmeterol free base at 0.02 percent by weight and 0.05 percent by weight were prepared in HFC 134a and in HFC 227 by placing the drug and 5 mL of glass beads into a 15 mL glass vial, crimping on a continuous valve, and adding the appropriate amount of propellant. The formulations were shaken on a paint shaker for 10 min in order to disperse the drug.
The vial was then shaken on a paint shaker, chilled, and the contents transferred to 10 mL vials fitted with the metered dose valve. […] Valve delivery was measured through the life of the formulations.

[2] = Visual assessment of suspension formulations by time lapse photography 10 and 30 seconds after agitation; format: physicochemical; design: key: + = visually acceptable formulation; − = visually unacceptable formulation; ? = border line acceptable formulation
Method: as §1
Using time lapse photography 10 and 30 seconds after agitation the formulations were assessed as follows: […]
The formulations were photographed using time lapse photography at 10 and 30 seconds post agitation and were assessed as follows: […]

[3] = Example 5: 0.02 and 0.05 percent by weight in HFC 134a and in HFC 227
[4] = Example 1: drug concentration 0.017 % in HFC 134a alone
[5] = Example 1: drug concentration 0.039 % in HFC 134a alone
[6] = Example 1: drug concentration 0.083 % in HFC 134a alone
[7] = Example 1: drug concentration 0.41 % in HFC 134a alone
[8] = Example 1: drug concentration 1.63 % in HFC 134a alone
[9] = Example 4: 0.070 percent in HFC 227
[10] = Example 4: 0.38 percent in 1:1 HFC 134a/HFC 227

SMILES	creaming [1, 3]	flocculation [1, 3]	suitability for metered dose inhaler [1, 3]	visual assessment of formulation [2, 4]	visual assessment of formulation [2, 5]	visual assessment of formulation [2, 6]	visual assessment of formulation [2, 7]	visual assessment of formulation [2, 8]	homogeneity of suspension [1]	dispersion [1, 9]	time of flocculation after shaking [1, 9]	flocculation [1, 10]	settling or creaming of flocs [1, 10]	homogeneity of formulation ([1]; Example 2: 0.015, 0.035 and 0.070 percent by weight in HFC 227, no surfactant)	flocculation and sedimentation ([1]; Example 2: 0.35 percent and 1.4 percent in HFC 227, no surfactant)
OCc1cc(C(O)CNCCCCCCOCCCCc2ccccc2)ccc1O (centres unmarked) [salmeterol free base, salmeterol]	cream in both propellants, more so in HFC 227 than in HFC 134a	Flocculation was also apparent	deemed suitable for use in connection with a metered dose inhaler												
CCC(=O)OCC(=O)[C@@]1(OC(=O)CC)[C@@H](C)C[C@H]2[C@@H]3CCC4=CC(=O)C=C[C@]4(C)[C@@]3(Cl)[C@@H](O)C[C@@]21C [Beclomethasone dipropionate]				+	+	?	−	+	particularly homogenous suspensions	fairly well dispersed	about 10 seconds	flocculation was rapid	the flocs neither settled nor creamed		
O=C([O-])c1cc(=O)c2c(OCC(O)COc3cccc4oc(C(=O)[O-])cc(=O)c34)cccc2o1.[Na+].[Na+] [Disodium cromoglycate]				+	+	?	−	−						particularly homogenous	more rapid flocculation and sedimentation
CC(C)(C)NCC(O)c1ccc(O)c(CO)c1 (centres unmarked) [Albuterol]				+	+	?	−	+	particularly homogenous suspensions						

— patent publication US6743413B1, “Suspension aerosol formulations” (3M Company, priority 1991, dated 2004)
